From paper PMC9177597, “Structural basis of substrate recognition and translocation by human very long-chain fatty acid transporter ABCD1” (Nature Communications, 2022)
Substitutions are numbered along the chain they refer to.

How the values were obtained:
Test in all cases: substrate-stimulated ATPase assay (colorimetric Pi release)
Format in all cases: biochemical
chABCD1 (chimeric ABCD1) [1] = target: T1, chABCD1 (chimeric ABCD1) (Homo sapiens, UniProt P33897, R104A); conditions: 5 μM C22:0-CoA, 2 mM ATP, 2 mM MgCl2, LMNG + CHS, pH 7.5, 37 °C
T1 construct: single polypeptide: N-terminal FLAG tag, PMP-4 residues 1-65 replacing human ABCD1 residues 1-63, then human ABCD1 64-745; HEK293F; homodimer; LMNG/CHS for assays, digitonin for cryo-EM; with PMP-4 (peroxisomal membrane protein related, ABCD1 homolog, Caenorhabditis elegans; N-terminal segment fused to the target chain)
T1 sequence (P33897 64-745 R104A): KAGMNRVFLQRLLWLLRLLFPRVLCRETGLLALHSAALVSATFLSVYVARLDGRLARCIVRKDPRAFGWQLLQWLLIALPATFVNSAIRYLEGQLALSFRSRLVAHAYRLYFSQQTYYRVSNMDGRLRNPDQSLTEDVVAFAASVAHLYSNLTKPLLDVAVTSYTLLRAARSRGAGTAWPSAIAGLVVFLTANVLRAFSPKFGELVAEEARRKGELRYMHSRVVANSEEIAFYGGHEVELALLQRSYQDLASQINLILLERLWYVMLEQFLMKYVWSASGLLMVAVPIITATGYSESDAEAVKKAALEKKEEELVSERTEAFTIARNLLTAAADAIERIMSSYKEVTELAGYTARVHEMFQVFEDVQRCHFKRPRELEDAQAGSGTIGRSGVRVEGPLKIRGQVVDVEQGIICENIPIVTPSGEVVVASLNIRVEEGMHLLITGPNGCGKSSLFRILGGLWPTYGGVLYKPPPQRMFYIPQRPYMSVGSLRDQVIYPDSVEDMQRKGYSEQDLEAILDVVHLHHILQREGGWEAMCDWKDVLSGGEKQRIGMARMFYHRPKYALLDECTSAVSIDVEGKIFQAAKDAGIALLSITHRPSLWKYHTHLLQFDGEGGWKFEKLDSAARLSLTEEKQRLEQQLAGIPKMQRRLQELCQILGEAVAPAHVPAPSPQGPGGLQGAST

chABCD1 (chimeric ABCD1) [2] = target: T2, chABCD1 (chimeric ABCD1) (Homo sapiens, UniProt P33897)
T2 construct: single polypeptide: N-terminal FLAG tag, PMP-4 residues 1-65 replacing human ABCD1 residues 1-63, then human ABCD1 64-745; HEK293F; homodimer; LMNG/CHS for assays, digitonin for cryo-EM; with PMP-4 (peroxisomal membrane protein related, ABCD1 homolog, Caenorhabditis elegans; N-terminal segment fused to the target chain)
T2 sequence (P33897 64-745): T1 sequence (P33897 64-745 R104A) with A41R

chABCD1 (chimeric ABCD1) [3] = target: T3, chABCD1 (chimeric ABCD1) (Homo sapiens, UniProt P33897, K217A); conditions: 5 μM C22:0-CoA, 2 mM ATP, 2 mM MgCl2, LMNG + CHS, pH 7.5, 37 °C
T3 construct: single polypeptide: N-terminal FLAG tag, PMP-4 residues 1-65 replacing human ABCD1 residues 1-63, then human ABCD1 64-745; HEK293F; homodimer; LMNG/CHS for assays, digitonin for cryo-EM; with PMP-4 (peroxisomal membrane protein related, ABCD1 homolog, Caenorhabditis elegans; N-terminal segment fused to the target chain)
T3 sequence (P33897 64-745 K217A): T1 sequence (P33897 64-745 R104A) with A41R, K154A

chABCD1 (chimeric ABCD1) [4] = target: T4, chABCD1 (chimeric ABCD1) (Homo sapiens, UniProt P33897, Y337F); conditions: 5 μM C22:0-CoA, 2 mM ATP, 2 mM MgCl2, LMNG + CHS, pH 7.5, 37 °C
T4 construct: single polypeptide: N-terminal FLAG tag, PMP-4 residues 1-65 replacing human ABCD1 residues 1-63, then human ABCD1 64-745; HEK293F; homodimer; LMNG/CHS for assays, digitonin for cryo-EM; with PMP-4 (peroxisomal membrane protein related, ABCD1 homolog, Caenorhabditis elegans; N-terminal segment fused to the target chain)
T4 sequence (P33897 64-745 Y337F): T1 sequence (P33897 64-745 R104A) with A41R, Y274F

EC50 (chABCD1 (chimeric ABCD1) [2]): ~2000 nM
Structure (SMILES): CCCCCCCCCCCCCCCCCCCCCC(=O)SCCNC(=O)CCNC(=O)[C@H](O)C(C)(C)COP(=O)(O)OP(=O)(O)OC[C@H]1O[C@@H](n2cnc3c(N)ncnc32)[C@H](O)[C@@H]1OP(=O)(O)O [C22:0-CoA]
relative ATPase activity (chABCD1 (chimeric ABCD1) [1]): displayed significantly decreased substrate-simulated ATPase activity, compared to the wild-type | relative ATPase activity (chABCD1 (chimeric ABCD1) [3]): displayed significantly decreased substrate-simulated ATPase activity, compared to the wild-type | relative ATPase activity (chABCD1 (chimeric ABCD1) [4]): displayed significantly decreased substrate-simulated ATPase activity, compared to the wild-type
